Laboratory results from patent US11512089B2, “Substituted [1,2,4]triazolo[3,4-a]phthalazines as modulators of GABAA receptor activity” (SHANGHAI SIMR BIOTECHNOLOGY CO., LTD, priority 2018, dated 2022).
Converted amounts (≈) assume the structure as drawn.

Assays:
[1] = target: T1, α5-GABAA receptor (Homo sapiens, UniProt P18507+P31644); test: Whole cell patch clamp, inverse agonism efficacy on GABA-induced current in HEK-293 cells expressing α5-GABAA receptor; assay type: cell-based; conditions: HEK293; compound 100 nM, GABA 0.05 μM; ratio to reference compound Example 7 in CN106854207A in the same batch
T1 construct: expressed in transfected cells; host or cells: HEK-293 (monoclonal, stably transfected)
T1 sequence (P28472 26-473 partner, one chain of several): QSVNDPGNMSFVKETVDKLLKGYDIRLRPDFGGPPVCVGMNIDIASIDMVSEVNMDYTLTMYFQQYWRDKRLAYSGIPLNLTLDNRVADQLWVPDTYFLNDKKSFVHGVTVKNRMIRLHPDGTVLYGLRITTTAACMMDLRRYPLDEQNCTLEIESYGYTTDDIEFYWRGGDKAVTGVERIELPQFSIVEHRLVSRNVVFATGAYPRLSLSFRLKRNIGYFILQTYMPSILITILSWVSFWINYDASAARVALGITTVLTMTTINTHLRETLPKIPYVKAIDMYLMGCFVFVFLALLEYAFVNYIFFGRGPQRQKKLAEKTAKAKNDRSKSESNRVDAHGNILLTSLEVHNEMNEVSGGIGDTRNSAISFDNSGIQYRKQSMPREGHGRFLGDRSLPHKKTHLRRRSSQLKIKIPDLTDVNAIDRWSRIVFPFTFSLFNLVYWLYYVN
T1 sequence (P18507 40-467 isoform P18507-1 limits assumed, one chain of several): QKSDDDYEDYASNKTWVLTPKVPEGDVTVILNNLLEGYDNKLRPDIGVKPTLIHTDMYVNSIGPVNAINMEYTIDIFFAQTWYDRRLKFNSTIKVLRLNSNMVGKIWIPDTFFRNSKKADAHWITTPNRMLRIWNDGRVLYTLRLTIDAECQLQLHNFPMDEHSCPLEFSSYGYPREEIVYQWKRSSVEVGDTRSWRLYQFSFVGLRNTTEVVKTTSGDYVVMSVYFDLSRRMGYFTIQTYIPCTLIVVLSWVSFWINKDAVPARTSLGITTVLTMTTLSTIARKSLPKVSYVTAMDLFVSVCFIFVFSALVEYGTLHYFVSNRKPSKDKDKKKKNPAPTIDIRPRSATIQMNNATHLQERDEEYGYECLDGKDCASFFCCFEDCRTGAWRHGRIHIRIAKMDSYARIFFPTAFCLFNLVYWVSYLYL
Procedure: The inventors used electrophysiological methods to determine the inverse agonist efficacy of the substances to be tested. The detailed procedures are as follows:
(1) Different subunits of GABAA receptors were expressed in human embryonic kidney cells 293 (HEK293). The cells were cultured in a culture medium and used as a cell model for screening potential analgesics. The α, β and γ subunits are necessary to form complete functional GABAA receptors. In this example, the inventors have established the following cell model: (a) α5 subunit (protein sequence is GenBank accession number: NM_000810.3), (33 subunit (protein sequence is GenBank accession number: NM_000814.5) and γ2 subunit (protein sequence is GenBank accession number: NM_000816.3) were expressed in HEK-293 cell line at the same time, followed by screening the monoclonal cell line. This cell line contained α5-GABAA receptor and had complete GABAA receptor function.
(2) The monoclonal stably transfected HEK-293 cells expressing α5-GABAA receptor were cultured in 10 cm culture dishes. The cells were passaged after reaching 80-90% confluence. During passaging, the culture medium was removed and discarded, 3 mL of DPBS (phosphate buffered saline, Gibco™) was added to the dishes, the dishes were shaken slightly, and DPBS was removed and discarded. 1 mL of trypsin (TrypLE Express, Gibco™) was added and the cells were digested at 37° C. for 1-2 minutes. Then 3 mL of complete medium (DMEM+10% FBS (Gibco™)) was added and the cells at the bottom of the culture dishes were dispersed. The cell suspension were transferred to a 15 mL centrifugal tube (Corning™) and then centrifuged at 200 g for 3 minutes. The supernatant was discarded, 4 mL of complete medium was added, and the cells were resuspended by gently blowing. The cell suspension was diluted by 1:5 or 1:10 for subculturing. The cell suspension was diluted by 1:12 for electrophysiology experiment, and added to a 24 well plate (Corning™) with a glass slide pre-treated with poly-D-lysine placed thereon; the experiment was initiated after the cells were adhered to the slide. The cells for electrophysiology experiment were maintained in culture for no more than 48 hours before use.
(3) Compound concentration: for screening, all compounds were diluted to a final concentration of 100 nM and the concentration of GABA was 0.05 μM. The compounds were at the concentration of 0.3 nM, 3 nM, 10 nM, 30 nM, 100 nM and 300 nM in dose-inverse agonism efficacy (%) experiment. The whole cell patch clamp technique was used in electrophysiology experiments, which can refer to the literature (I. Lecker, Y. Yin, D. S. Wang and B. A. Orser, (2013) Potentiation of GABAA receptor activity by volatile anaesthetics is reduced by α5-GABAA receptor-preferring inverse agonists, British Journal of Anaesthesia 110 (S1): i73-i81). The extracellular solution (ECS) contained: 150 mM NaCl, 5 mM KCl, 2.5 mM CaCl2, 1 mM MgCl2, 10 mM HEPES and 10 mM glucose (pH 7.4); Patch electrodes were filled with an intracellular solution containing: 140 mM CsCl, 11 mM EGTA, 10 mM HEPES, 2 mM CaCl2, 1 mM MgCl2, 4 mM MgATP, 2 mM TEA (pH 7.3). The currents were recorded by an EPC-10 amplifier and the PatchMaster software (HEKA). Patch electrodes with a resistance of 4-6 MΩ were pulled from borosilicate glass. The ALA-VC3-8PP™ system was used for extracellular administration. Separate cells that grew independently was selected for recording. During recording, the membrane voltage was clamped at −60 mV. During experiment, the cells were firstly perfused with ECS for 20 seconds. When the baseline reached to a stable state, the cells were then perfused with GABA solution. Then the current induced by GABA could be detected. After about 20 to 40 seconds, the current was stable. ECS was switched to compounds solution and the effects of the compounds were detected. At last, the perfusion solution was switched to ECS. […]

[2] = Kinetic solubility in 50 mM phosphate buffer pH 7.4; assay type: physicochemical; conditions: aqueous buffer, kinetic from dmso stock, 50 mM phosphate buffer pH 7.4, 2% DMSO, room temperature
Procedure: (§1) 50 mM phosphate buffer pH=7.4: 0.39 g of NaH2PO4.2H2O, and 1.4025 g of Na2HPO4 were weighted and placed in an erlenmeyer flask, 240 mL of water was added. The solid was dissolved and mixed thoroughly, the pH value was adjusted to 7.4 with 10M NaOH solution, and the resulting solution was transferred to a 250 mL volumetric flask, followed by adding water to the mark.
(§2) Waters e2695 HPLC high performance liquid chromatography, Mettler XSE105 analytical balance.
(§3) Firstly, a 10 mM stock solution with DMSO as the solvent was prepared, and was diluted with a diluent (ACN: PB buffer 50:50) into 1 μM-200 μM as standard solution.
Kinetic solubility. 30 μL of the stock solution was placed in a 2 mL centrifuge tube, 1470 μL of 50 mM phosphate buffer (pH 7.4) (containing DMSO at a final concentration of 2%) was added. The mixture was shaken at room temperature (1000 rpm/min) for 24 hours, and then filtered. The filtrate was tested by high performance liquid chromatography (UV).

[3] = Thermodynamic solubility in 50 mM phosphate buffer pH 7.4; assay type: physicochemical; conditions: aqueous buffer, thermodynamic from solid, 50 mM phosphate buffer pH 7.4, room temperature
Procedure: as §1, §2, §3
Thermodynamic solubility. About 1 mg of the sample was weighted, 1.5 mL of 50 mM phosphate buffer (pH 7.4) was added thereto, and the mixture was shaken at room temperature for 24 hours to ensure that the solution reached a state of saturation. The solution was then filtered, and the filtrate was tested with high-performance liquid chromatography (UV).

[4] = target: T2, α5-GABAA (Homo sapiens, UniProt P31644); conditions: cited from earlier work
T2 sequence (P31644 32-462): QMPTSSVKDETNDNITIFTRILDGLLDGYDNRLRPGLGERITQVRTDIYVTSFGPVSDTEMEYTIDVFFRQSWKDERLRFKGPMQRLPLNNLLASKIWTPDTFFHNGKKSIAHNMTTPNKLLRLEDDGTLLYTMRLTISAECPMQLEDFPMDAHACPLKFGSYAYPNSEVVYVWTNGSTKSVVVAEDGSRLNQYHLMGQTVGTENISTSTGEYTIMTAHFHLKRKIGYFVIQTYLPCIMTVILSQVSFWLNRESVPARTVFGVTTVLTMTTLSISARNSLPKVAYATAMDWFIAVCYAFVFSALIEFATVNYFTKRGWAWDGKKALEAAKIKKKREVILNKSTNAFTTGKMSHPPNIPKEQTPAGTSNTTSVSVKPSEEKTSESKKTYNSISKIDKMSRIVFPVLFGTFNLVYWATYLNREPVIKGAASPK

[5] = system: α5-GABAA receptor; conditions: cited from earlier work
[6] = Pharmacokinetic experiment on rats, oral; assay type: in vivo; conditions: rat; male SD rats, po 1 mg/kg, 50% PEG400/50% water, plasma
Procedure: In the pharmacokinetic experiment on rats, the maximum drug concentration (Cmax) in the blood was determined to evaluate the absorption of the compounds in rats. All rats fasted overnight before administration; the test compounds were dissolved and administered orally (po, intragastric administration) to male SD rats, with 3 rats in each group. After administration of the test compounds, blood was collected by jugular vein puncture at […] with 0.25 mL per sample. The plasma drug concentration was determined by LC-MS/MS method, and the pharmacokinetic parameters were calculated by Phoenix WinNonlin7.0. The dose was 1 mg/kg, and the menstruum was 50% PEG400/50% water.

Row | Emax at 0.1 µM [1] | solubility kinetic at 24 h [2] | solubility thermodynamic at 24 h [3] | Structure (SMILES) | also measured
1 | 73.3% | 5.89 µg/mL (≈ 11.7 µM) | 6.02 µg/mL (≈ 12 µM) | COCc1cc(-c2nnc3c4ccccc4c(OCc4ccc(C(=O)N5CC(OC)C5)cn4)nn23)no1 [Compound 42] | 
2 |  | 2.2 µg/mL (≈ 4.96 µM) | 1.8 µg/mL (≈ 4.06 µM) | Cc1cc(-c2nnc3c4ccccc4c(OCc4ccc(C(=O)NC(C)C)cn4)nn23)no1 [reference compound] | 
3 |  | 2.16 µg/mL (≈ 4.89 µM) | 0.82 µg/mL (≈ 1.86 µM) | Cc1cc(-c2nnc3c4ccccc4c(OCc4ccc(C(=O)NC5CC5)cn4)nn23)no1 [reference compound] | 
4 |  | < 0.46 µg/mL | < 0.46 µg/mL | Cc1cc(-c2nnc3c4ccccc4c(OCc4ccc(C(=O)NCC(F)F)cn4)nn23)no1 [reference compound] | 
5 |  | 0.97 µg/mL (≈ 1.92 µM) | 0.98 µg/mL (≈ 1.94 µM) | Cc1cc(-c2nnc3c4ccccc4c(OCc4ccc(C(=O)N5CCC(F)(F)CC5)cn4)nn23)no1 [reference compound] | 

The remaining lines, values behind:

Row | Structure (SMILES) | Emax at 0.1 µM [1] | solubility kinetic at 24 h [2] | solubility thermodynamic at 24 h [3] | also measured
6 | CCNC(=O)c1ccc(COc2nn3c(-c4cc(COC)on4)nnc3c3ccccc23)nc1 [Compound 02, N-ethyl-6-[3-(5-methoxymethyl-isoxazol-3-yl)-[1,2,4]triazolo[3,4-a]phthalazin-6-yloxymethyl]-nicotinamide] | 78% | 8.02 µg/mL (≈ 17.5 µM) | 3.39 µg/mL (≈ 7.38 µM) | 
7 | COCc1cc(-c2nnc3c4ccccc4c(OCc4ccc(C(=O)NC(C)C)cn4)nn23)no1 [Compound 11, N-isopropyl-6-[3-(5-methoxymethyl-isoxazol-3-yl)-[1,2,4]triazolo[3,4-a]phthalazin-6-yloxymethyl]-nicotinamide] | 106% | 9.23 µg/mL (≈ 19.5 µM) | 4.4 µg/mL (≈ 9.29 µM) | 
8 | COCc1cc(-c2nnc3c4ccccc4c(OCc4ccc(C(=O)NC5CC5)cn4)nn23)no1 [Compound 12, N-cyclopropyl-6-[3-(5-methoxymethyl-isoxazol-3-yl)-[1,2,4]triazolo[3,4-a]phthalazin-6-yloxymethyl]-nicotinamide] | 94% | 10.9 µg/mL (≈ 23.1 µM) | 9.05 µg/mL (≈ 19.2 µM) | 
9 | COCc1cc(-c2nnc3c4ccccc4c(OCc4ccc(C(=O)N(C)C)cn4)nn23)no1 [Compound 37] | 72.1% | 91.9 µg/mL (≈ 200 µM) | 84.7 µg/mL (≈ 184 µM) | 
10 | COCc1cc(-c2nnc3c4ccccc4c(OCc4ccc(C(=O)N5CCOCC5)cn4)nn23)no1 [Compound 38, {6-[3-(5-methoxymethyl-isoxazol-3-yl)-[1,2,4]triazolo[3,4-a]phthalazin-6-yloxymethyl]-pyridin-3-yl}-morpholin-4-methanone] | 93.4% | 17.8 µg/mL (≈ 35.4 µM) | 8.7 µg/mL (≈ 17.3 µM) | 
11 | CCOC(=O)c1ncn2c1[C@@H]1CCCN1C(=O)c1cc(OC)ccc1-2 [L-655,708] |  |  |  | inhibition efficacy of the highest dose on the current induced by GABA ([4]; GABA concentration 1 μM): 15%; inhibition on the current induced by GABA ([4]; GABA concentration higher than 1 μM): no inhibition
12 | Cc1cc(-c2nncc3c(C(C)(C)C)c(OCc4ncnn4C)nn23)no1 [MRK016, 3-tert-butyl-7-(5-methylisoxazol-3-yl)-2-(1-methyl-1H-1,2,4-triazol-5-ylmethoxy)pyrazolo[1,5-d][1,2,4]triazine] |  |  |  | block of the binding of (^3H)R0-15-1788 in brain [5]: efficiently block
13 | CCNC(=O)c1ccc(COc2nn3c(-c4cc(COC)on4)nnc3c3ccccc23)nc1 [drawing 172] |  |  |  | Cmax [6]: 24.7 ng/mL
14 | CCNC(=O)c1ccc(COc2nn3c(-c4cc(C)on4)nnc3c3ccccc23)nc1 [drawing 173, reference compound] |  |  |  | Cmax [6]: 19 ng/mL
15 | COCc1cc(-c2nnc3c4ccccc4c(OCc4ccc(C(=O)N5CCOCC5)cn4)nn23)no1 [drawing 174] |  |  |  | Cmax [6]: 48 ng/mL
16 | Cc1cc(-c2nnc3c4ccccc4c(OCc4ccc(C(=O)N5CCOCC5)cn4)nn23)no1 [drawing 175, reference compound] |  |  |  | Cmax [6]: 22.4 ng/mL
